For experiment [1], the system named is MV-4-11 cells. Put plainly: Antiproliferative activity, CellTiter-Glo, 7 days (Test Example 2), MV-4-11. The experiment is classed as cell-based. The conditions noted are these: Homo sapiens, MV4-11, 168 h, 7 days incubation. From the text:
(§1) [0134] 1. Experimental Principle: MV-4-11, Molm-13, and OCI-AML-3 cells are human hematologic tumor cell lines harboring the Menin-MLL fusion. HL-60 is a wild-type human hematologic tumor cell line without Menin-MLL fusion. […] 2. Experimental Materials: MV-4-11, Molm-13, OCI-AML-3, and HL-60 cells were all purchased from Cobioer; CellTiter-Glo® was purchased from Promega (Cat. #G7571); RPMI-1640 was purchased from Viva Cell (Cat. #C3010-0500); IMDM was purchased from Viva Cell (Cat. #C3040-0500); fetal bovine serum (FBS) was purchased from Biosera (Cat. #FB-1058/500); penicillin-streptomycin was purchased from BasalMedia (Cat. #S110JV); 0.25% Trypsin-EDTA was purchased from BasalMedia (Cat. #S310KJ); dimethyl sulfoxide (DMSO) was purchased from Sinopharm (Cat. #30072418); 96-well plates were purchased from Corning (Cat. #3610); incubator was obtained from PHCbi (Model: MCO-18AC); inverted microscope was obtained from Mingmei (Cat. #MI52-0); automated cell counter was obtained from BodBoge (Model: JSY-SC-031N); microplate reader was obtained from PerkinElmer (Model: Envision); data processing software: GraphPad Prism 8.0. 3. Experimental Methods: Four cell lines in logarithmic growth phase were resuspended in their respective growth media (MV-4-11: IMDM + 20% FBS; Molm-13: RPMI-1640 + 20% FBS; OCI-AML-3: RPMI-1640 + 20% FBS; HL-60: RPMI-1640 + 10% FBS) and diluted to target densities (12,500, 6,250, 12,500, and 12,500/mL, respectively). The cell suspensions were seeded into 96-well plates at 80 µL per well and incubated overnight at 37°C in a 5% CO2 incubator. Culture medium served as the background control. Test compounds were dissolved in DMSO to prepare 10 mmol/L stock solutions. The stock solutions were first diluted to 2 mmol/L with DMSO, followed by 4-fold serial dilutions to generate 10 concentrations. From each concentration, 2 µL was diluted with 78 µL growth medium. […] After incubation at room temperature for 10 minutes, luminescence values were read using the EnVision microplate reader, and IC50 values were calculated using GraphPad Prism 8.0 software. […]
Background: ATP-based viability assays read luminescence as a measure of living cells.

The test system of experiment [2] is HL-60 cells. Put plainly: Antiproliferative activity, CellTiter-Glo, 7 days (Test Example 2), HL-60. The conditions noted are these: Homo sapiens, 168 h, HL-60 cells (no Menin-MLL fusion), 7 days incubation. It is filed as cell-based.
Excerpt: as §1

The target of experiment [3] is T1, Menin-M327I (Homo sapiens, UniProt O00255, M322I).
T1 sequence (O00255 1-615 isoform O00255-1 M327I): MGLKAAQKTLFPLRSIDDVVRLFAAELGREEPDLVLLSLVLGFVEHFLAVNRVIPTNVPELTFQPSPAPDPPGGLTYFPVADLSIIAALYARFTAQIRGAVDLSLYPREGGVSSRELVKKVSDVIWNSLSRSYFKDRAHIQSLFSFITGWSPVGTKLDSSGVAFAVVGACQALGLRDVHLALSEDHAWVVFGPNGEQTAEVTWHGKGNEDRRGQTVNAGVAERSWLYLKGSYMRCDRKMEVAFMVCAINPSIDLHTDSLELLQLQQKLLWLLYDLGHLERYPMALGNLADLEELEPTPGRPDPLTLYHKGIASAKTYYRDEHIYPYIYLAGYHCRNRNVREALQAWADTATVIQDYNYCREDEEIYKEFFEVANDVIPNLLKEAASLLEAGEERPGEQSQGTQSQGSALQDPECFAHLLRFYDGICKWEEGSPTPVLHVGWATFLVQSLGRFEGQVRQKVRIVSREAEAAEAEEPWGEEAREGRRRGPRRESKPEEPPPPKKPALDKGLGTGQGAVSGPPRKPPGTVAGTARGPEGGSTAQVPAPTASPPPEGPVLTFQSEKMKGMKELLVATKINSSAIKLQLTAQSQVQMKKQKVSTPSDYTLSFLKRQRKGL
Put plainly: Fluorescence polarization assay of Menin binding to MLL peptide, M327I mutant. Particulars: FP, 8 nM Menin, 4 nM MLL peptide. The text has this: • 1. Objective: To evaluate the inhibitory activity of compounds against wild-type Menin protein (Menin-WT) and its mutant variants (Menin-M327V, Menin-M327I, Menin-T349M, Menin-S160T, Menin-S160C, Menin-G331R, and Menin-G331D). • 2. Experimental Principle: The experiment employed fluorescence polarization (FP) to detect the binding of wild-type Menin protein and its mutant variants to MLL peptide. In the absence of inhibitors, binding of wild-type Menin protein and its mutant variants to MLL peptide generates a high FP signal; upon addition of inhibitors, the binding between Menin proteins and MLL peptide is disrupted, resulting in a low FP signal. • 3. Experimental Materials: Final concentration of wild-type Menin protein and its mutant variants: 8 nM; final concentration of MLL peptide: 4 nM. Assay buffer: 50 mM Tris-HCl (pH 8.0), 120 mM NaCl, 0.005% CA-630, 2 mM DTT. • 4. […] The plate was centrifuged at 1000 rpm for 60 seconds. Subsequently, 10 µL of MLL peptide was added to each assay well. The plate was centrifuged at 1000 rpm for 60 seconds and sealed with a sealing membrane. After incubation at 23°C for 60 minutes, the plate was read using a PerkinElmer Envision reader. Data Analysis: [formula]
Curve fitting: XLFIT software was used for curve fitting, employing a four-parameter logistic model with percent inhibition versus log(compound concentration) as variables.

These results are taken from patent EP4775580A1, “COMPOUND, PHARMACEUTICAL COMPOSITION COMPRISING SAME, AND USE THEREOF” (Euregen Biopharma Co., Ltd., priority 2023, dated 2025).

Structures are written as SMILES.

Usually IC50 stands for the point on the concentration scale where inhibition reaches its midpoint. A high value points to lower potency.

On to `CCN(C(=O)c1cc(F)ccc1N1CCN([C@@H]2CCN([C@H](CCCN(C)CCOC)C(C)C)C2)c2ncncc21)C(C)C` [Example 3], for which the figures for the half-inhibitory concentration (IC50) in experiment [1], in experiment [2] and in experiment [3] were 10.1 nM, above 10000 nM and 40.7 nM, respectively.
For `CCN(C(=O)c1cc(F)ccc1Oc1cncnc1N1CC2(CCN(C[C@H]3CC[C@H](NS(=O)(=O)CC)CC3)CC2)C1)C(C)C` [SNDX-5613, revumenib] the same measures were 14.4 nM, above 10000 nM and 928 nM.
